Assay results as given in patent publication US8394825B2, “Compound” (Sterix Limited, priority 2007, dated 2013).

Key:
DU145 cells = assay: Antiproliferative assay in DU145 cells, WST-1 cell proliferation assay, 96 hours (GI50); format: cell-based; details: Homo sapiens, DU-145, 96 hours post-treatment
Summary of the method: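 DU145 cells seeded at 5000 cells/well, treated with […] compound or vehicle for 96 h. Viability read by WST-1, expressed as percent of mean control, GI50 derived; triplicate experiments.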

Row | GI50 (DU145 cells; triplicate) | melting point | GI50 (DU145 cells; 50% growth inhibition) | Compound
1 | > 100 µM | 146 to 147 °C |  | COc1cc2c(cc1O)CCN(Cc1ccc(OC)c(OC)c1)C2 [compound 57, 6-Hydroxy-7-methoxy-2-(3,4-dimethoxybenzyl)-1,2,3,4-tetrahydroisoquinoline]
2 | > 100 µM | 164 to 167 °C |  | COc1cc2c(cc1O)CCN(S(=O)(=O)c1ccccc1C#N)C2 [compound 183, 2-(2-Cyano-benzenesulfonyl)-6-hydroxy-7-methoxy-1,2,3,4-tetrahydroisoquinoline]
3 | > 100 µM | 204 to 206 °C |  | COc1cc2c(cc1O)CCN(S(=O)(=O)c1cccc(C#N)c1)C2 [compound 186, 2-(3-Cyano-benzenesulfonyl)-6-hydroxy-7-methoxy-1,2,3,4-tetrahydroisoquinoline]
4 | < 10 µM | 172 to 173 °C |  | COc1cc2c(cc1O)CCN(C(=O)c1cc(OC)c(OC)c(OC)c1)C2 [compound 120, 6-Hydroxy-7-methoxy-2-(3,4,5-trimethoxybenzoyl)-1,2,3,4-tetrahydroisoquinoline]
5 |  | > 180 °C (dec.) | > 100 µM | COc1cc(OC)cc(C(=O)N2Cc3cc(OC)c(OS(N)(=O)=O)cc3CC2(C)C)c1 [compound 237, Sulfamic acid 2-(3,5-dimethoxy-benzoyl)-7-methoxy-3,3-dimethyl-1,2,3,4-tetrahydro-isoquinolin-6-yl ester]
6 | < 10 µM | 152 to 153 °C |  | COc1cc2c(cc1O)CCN(Cc1cc(OC)c(OC)cc1OC)C2 [compound 59, 6-Hydroxy-7-methoxy-2-(2,4,5-trimethoxybenzyl)-1,2,3,4-tetrahydroisoquinoline]
7 | < 10 µM | 198 to 199 °C |  | COc1cccc(C(=O)N2CCc3cc(O)c(OC)cc3C2=O)c1 [compound 139, 6-Hydroxy-7-methoxy-2-(3-methoxybenzoyl)-3,4-dihydro-2H-isoquinoline-1-one]
8 | > 100 µM | 165 to 166.5 °C |  | COc1cc2c(cc1O)CCN(Cc1ccc(C#N)cc1)C2 [compound 65, 2-(4-Cyanobenzyl)-6-hydroxy-7-methoxy-1,2,3,4-tetrahydroisoquinoline]
9 | > 100 µM | 143 to 146 °C |  | COc1cc2c(cc1O)CCN(Cc1cccc(OC(C)C)c1)C2 [compound 61, 2-(3-Isopropoxybenzyl)-6-hydroxy-7-methoxy-1,2,3,4-tetrahydroisoquinoline]
10 | 50 to 100 µM | 118 to 119.5 °C |  | COc1cc2c(cc1O)CCN(Cc1cccc(Cl)c1)C2 [compound 67, 2-(3-Chlorobenzyl)-6-hydroxy-7-methoxy-1,2,3,4-tetrahydroisoquinoline]
11 | > 100 µM | 202 to 203 °C |  | COc1cc2c(cc1OCc1ccccc1)CCN(S(=O)(=O)c1ccccc1OC)C2=O [compound 197, 6-Benzyloxy-7-methoxy-2-(2-methoxy-benzenesulfonyl)-3,4-dihydro-2H-isoquinolin-1-one]
12 | > 100 µM | 164 to 165 °C |  | COc1cc2c(cc1O)CCN(Cc1ccccc1OC)C2=O [compound 161, 6-Hydroxy-7-methoxy-2-(2-methoxybenzyl)-3,4-dihydro-2H-isoquinolin-1-one]
13 | > 100 µM | 124 to 125 °C |  | COc1cccc(S(=O)(=O)N2CCc3cc(OCc4ccccc4)c(OC)cc3C2)c1 [compound 169, 6-Benzyloxy-7-methoxy-2-(3-methoxy-benzenesulfonyl)-1,2,3,4-tetrahydroisoquinoline]
14 | > 100 µM | 171 to 172 °C |  | COc1ccc(CN2CCc3cc(O)c(OC)cc3C2=O)cc1 [compound 159, 6-Hydroxy-7-methoxy-2-(4-methoxybenzyl)-3,4-dihydroisoquinolin-1(2H)-one]
15 | 50 to 100 µM | 104 to 105 °C |  | COc1ccc(OC)c(CN2CCc3cc(O)c(OC)cc3C2)c1 [compound 55, 6-Hydroxy-7-methoxy-2-(2,5-dimethoxybenzyl)-1,2,3,4-tetrahydroisoquinoline]
16 | > 100 µM | 178 to 180 °C |  | COc1cc2c(cc1O)CCN(S(=O)(=O)c1cccc(C(F)(F)F)c1)C2 [compound 181, 6-Hydroxy-7-methoxy-2-(3-trifluoromethyl-benzenesulfonyl)-1,2,3,4-tetrahydroisoquinoline]
17 | > 100 µM | 95 to 96 °C |  | COc1cc(CN2CCc3cc(OCc4ccccc4)c(OC)cc3C2)cc(OC)c1 [compound 6, 6-Benzyloxy-2-(3,5-dimethoxybenzyl)-7-methoxy-1,2,3,4-tetrahydroisoquinoline]
18 | > 100 µM | 147 to 149 °C |  | COc1ccc(S(=O)(=O)N2CCc3cc(O)c(OC)cc3C2)cc1 [compound 185, 6-Hydroxy-7-methoxy-2-(4-methoxy-benzenesulfonyl)-1,2,3,4-tetrahydroisoquinoline]
19 | 10 to 50 µM | 139 to 140 °C |  | COc1cc2c(cc1O)CCN(Cc1cccc(Oc3ccccc3)c1)C2 [compound 43, 6-Hydroxy-7-methoxy-2-(3-phenoxybenzyl)-1,2,3,4-tetrahydroisoquinoline]
20 | 10 to 50 µM | 85 to 86 °C |  | COc1ccccc1CN1CCc2cc(OCc3ccccc3)c(OC)cc2C1 [compound 5, 6-Benzyloxy-7-methoxy-2-(2-methoxybenzyl)-1,2,3,4-tetrahydroisoquinoline]
21 | > 100 µM | 195 to 196 °C |  | COc1cc2c(cc1OCc1ccccc1)CCN(C(=O)c1cc(OC)c(OC)c(OC)c1)C2=O [compound 134, 6-Benzyloxy-7-methoxy-2-(3,4,5-trimethoxybenzoyl)-3,4-dihydro-2H-isoquinolin-1-one]
22 | > 100 µM | 155 to 158 °C |  | COc1cc2c(cc1OCc1ccccc1)CCN(S(=O)(=O)c1cccc(Cl)c1)C2=O [compound 199, 6-Benzyloxy-2-(3-chloro-benzenesulfonyl)-7-methoxy-3,4-dihydro-2H-isoquinolin-1-one]

Continued, compound first:

Row | Compound | GI50 (DU145 cells; triplicate) | melting point | GI50 (DU145 cells; 50% growth inhibition)
23 | COc1ccc(C(=O)N2CCc3cc(O)c(OC)cc3C2=O)cc1 [compound 140, 6-Hydroxy-7-methoxy-2-(4-methoxybenzoyl)-3,4-dihydro-2H-isoquinolin-1-one] | > 100 µM | 224 to 225 °C | 
24 | COc1cc2c(cc1OCc1ccccc1)CCN(S(=O)(=O)c1cccc(C(F)(F)F)c1)C2 [compound 172, 6-Benzyloxy-7-methoxy-2-(3-trifluoromethyl-benzenesulfonyl)-1,2,3,4-tetrahydroisoquinoline] | > 100 µM | 136 to 138.5 °C | 
25 | COc1cc2c(cc1O)CCN(C(=O)c1ccccc1OC)C2 [compound 115, 6-Hydroxy-7-methoxy-2-(2-methoxybenzoyl)-1,2,3,4-tetrahydroisoquinoline] | 50 to 100 µM | 176 to 177 °C | 
26 | COc1cc2c(cc1O)CCN(Cc1cc(OC)c(OC)c(OC)c1)C2=O [compound 163, 6-hydroxy-7-methoxy-2-(3,4,5-trimethoxybenzyl)-3,4-dihydro-2H-isoquinolin-1-one] | > 100 µM | 168 to 169 °C | 
27 | COc1cc2c(cc1O)CCN(Cc1cccc(OC)c1OC)C2 [compound 56, 6-Hydroxy-7-methoxy-2-(2,3-dimethoxybenzyl)-1,2,3,4-tetrahydroisoquinoline] | > 100 µM | 101 to 102 °C | 
28 | COc1ccc(C(=O)N2CCc3cc(O)c(OC)cc3C2)cc1 [compound 117, 6-Hydroxy-7-methoxy-2-(4-methoxybenzoyl)-1,2,3,4-tetrahydroisoquinoline] | > 100 µM | 173 to 174 °C | 
29 | COc1ccc(S(=O)(=O)N2CCc3cc(O)c(OC)cc3C2=O)cc1 [compound 202, 6-Hydroxy-7-methoxy-2-(4-methoxy-benzenesulfonyl)-3,4-dihydro-2H-isoquinolin-1-one] | > 100 µM | 202 to 204 °C | 
30 | COc1cc2c(cc1O)CCN(S(=O)(=O)c1cccc(Cl)c1)C2=O [compound 203, 2-(3-Chloro-benzenesulfonyl)-6-hydroxy-7-methoxy-3,4-dihydro-2H-isoquinolin-1-one] |  | 178 to 181 °C | > 100 µM
31 | COc1cc2c(cc1O)CCN(Cc1cccc(O)c1)C2 [compound 70, 2-(3-Hydroxybenzyl)-7-methoxy-1,2,3,4-tetrahydroisoquinolin-6-ol] | > 100 µM | 177 to 178 °C | 
32 | COc1cc(CN2CCc3cc(O)c(OC)cc3C2)cc(OC)c1 [compound 42, 6-Hydroxy-2-(3,5-dimethoxybenzyl)-7-methoxy-1,2,3,4-tetrahydroisoquinoline] | 50 to 100 µM | 127 to 128 °C | 
33 | COc1cc2c(cc1O)CCN(Cc1cccc([N+](=O)[O-])c1)C2 [compound 66, 6-Hydroxy-7-methoxy-2-(3-nitrobenzyl)-1,2,3,4-tetrahydroisoquinoline] | > 100 µM | 127 to 128 °C | 
34 | COc1ccc(C(=O)N2CCc3cc(OCc4ccccc4)c(OC)cc3C2=O)cc1OC [compound 133, 6-(Benzyloxy)-7-methoxy-2-(3,4-dimethoxybenzoyl)-3,4-dihydro-2H-isoquinoline-1-one] | > 100 µM | 200 to 201 °C | 
35 | COc1cc2c(cc1O)CCN(S(=O)(=O)c1ccccc1OC)C2 [compound 184, 6-Hydroxy-7-methoxy-2-(2-methoxy-benzenesulfonyl)-1,2,3,4-tetrahydroisoquinoline] | > 100 µM | 140 to 142 °C | 
36 | COc1cc2c(cc1OCc1ccccc1)CCN(Cc1cccc(Oc3ccccc3)c1)C2 [compound 8, 6-Benzyloxy-7-methoxy-2-(3-phenoxybenzyl)-1,2,3,4-tetrahydroisoquinoline] | > 100 µM | 111 to 112 °C | 
37 | COc1cc2c(cc1O)CCN(C(=O)c1ccc(OC)c(OC)c1)C2=O [compound 142, 2-(3,4-Dimethoxybenzoyl)-6-hydroxy-7-methoxy-3,4-dihydro-2H-isoquinoline-1-one] | < 10 µM | 199 to 200 °C | 
